Consider 24 compounds from patent publication US12673944B2, “Compounds having inhibitory activity against glucosylceramide synthase or pharmaceutically acceptable salt thereof, processes for preparing the same, and pharmaceutical compositions comprising the same” (YUHAN CORPORATION, priority 2019, dated 2026).

The target in experiment [1] is T1, glucosylceramide synthase (GCS) (Homo sapiens, UniProt Q16739).
T1 construct: The obtained supernatant was used; host or cells: A549 cells (lysate supernatant after sonication)
T1 sequence (Q16739 1-394): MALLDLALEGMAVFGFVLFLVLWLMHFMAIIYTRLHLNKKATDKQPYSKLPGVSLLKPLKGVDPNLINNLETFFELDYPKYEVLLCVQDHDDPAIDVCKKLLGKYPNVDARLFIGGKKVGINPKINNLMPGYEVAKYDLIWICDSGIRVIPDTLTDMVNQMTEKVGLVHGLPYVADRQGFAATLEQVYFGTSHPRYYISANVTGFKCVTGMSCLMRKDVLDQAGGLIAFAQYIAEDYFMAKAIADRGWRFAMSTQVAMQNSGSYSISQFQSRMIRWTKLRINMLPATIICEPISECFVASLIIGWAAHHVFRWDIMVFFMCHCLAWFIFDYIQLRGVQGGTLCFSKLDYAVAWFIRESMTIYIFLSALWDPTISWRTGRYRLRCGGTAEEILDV
The experiment is described as follows: GCS enzyme inhibition assay (A549 cell lysate, NBD C6-ceramide, HPLC fluorescence). The format is biochemical. Particulars: inhibitory activity against GCS, 37° C., 90 minutes. In outline:
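Percent GCS activity was derived from the GlcCer share of Cer plus GlcCer areas, scaled from ibiglustat (0%) to DMSO (100%). Enzyme came from sonicated A549 lysate in 50 mM HEPES pH 7.3; 90 min incubation at 37° C, chloroform/methanol stop and extraction.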

Experiment [2] has as its system GM1 production in Jurkat cells. The experiment can be described thus: cells. The format is cell-based. Particulars: Homo sapiens, Jurkat, 72 h.

The IC50 is the concentration at which inhibition is half-maximal. Read a high IC50 as weaker potency in that assay.

Turning to `O=C(NC1CCOc2ccc(-c3ccc(Cl)cc3)cc21)O[C@@H]1CN2CCC1CC2` (stereo partly drawn) [Example 88, (S)-quinuclidin-3-yl (6-(4-chlorophenyl)chroman-4-yl)carbamate], the IC50 in experiment [1] was 9.41 nM; in experiment [2] it was 160 nM.
The like results for `O=C(NC1CCOc2ccc(-c3cccc(Cl)c3)cc21)O[C@@H]1CN2CCC1CC2` (stereo partly drawn) [Example 89, (S)-quinuclidin-3-yl (6-(3-chlorophenyl)chroman-4-yl)carbamate] were, in that order, 6.63 nM and 216 nM.
The like results for `O=C(NC1CCOc2ccc(-c3ccccc3Cl)cc21)O[C@@H]1CN2CCC1CC2` (stereo partly drawn) [Example 90, (S)-quinuclidin-3-yl (6-(2-chlorophenyl)chroman-4-yl)carbamate] were, in that order, 4.27 nM and 141 nM.
On to `O=C(NC1CCOc2ccc(-c3ccc(C(F)(F)F)cc3)cc21)O[C@@H]1CN2CCC1CC2` (stereo partly drawn) [Example 91, (S)-quinuclidin-3-yl (6-(4-(trifluoromethyl)phenyl)chroman-4-yl)carbamate], for which the IC50 in experiment [1] was found to be 5.38 nM; in experiment [2], 171 nM.
For `O=C(NC1CCOc2ccc(-c3cccc(C(F)(F)F)c3)cc21)O[C@@H]1CN2CCC1CC2` (stereo partly drawn) [Example 92, (S)-quinuclidin-3-yl (6-(3-(trifluoromethyl)phenyl)chroman-4-yl)carbamate], in that order: 29.6 nM and 495 nM.
Consider `O=C(NC1CCOc2ccc(-c3ccccc3C(F)(F)F)cc21)O[C@@H]1CN2CCC1CC2` (stereo partly drawn) [Example 93, (S)-quinuclidin-3-yl (6-(2-(trifluoromethyl)phenyl)chroman-4-yl)carbamate], for which the IC50 in experiment [1] was 4.25 nM; in experiment [2] it was 79.8 nM.
Turning to `O=C(NC1CCOc2ccc(-c3ccc(OC(F)(F)F)cc3)cc21)O[C@@H]1CN2CCC1CC2` (stereo partly drawn) [Example 94, (S)-quinuclidin-3-yl (6-(4-(trifluoromethoxy)phenyl)chroman-4-yl)carbamate], the IC50 was 8.13 nM in experiment [1] and 408 nM in experiment [2].
Take `O=C(NC1CCOc2ccc(-c3cccc(OC(F)(F)F)c3)cc21)O[C@@H]1CN2CCC1CC2` (stereo partly drawn) [Example 95, (S)-quinuclidin-3-yl (6-(3-(trifluoromethoxy)phenyl)chroman-4-yl)carbamate]: the IC50 in experiment [1] turned out to be 19.8 nM; in experiment [2], 513 nM.
`O=C(NC1CCOc2ccc(-c3ccccc3OC(F)(F)F)cc21)O[C@@H]1CN2CCC1CC2` (stereo partly drawn) [Example 96, (S)-quinuclidin-3-yl (6-(2-(trifluoromethoxy)phenyl)chroman-4-yl)carbamate]: the IC50 in experiment [1] amounted to 8.55 nM; in experiment [2], 78.9 nM.
Consider `CSc1ccc(-c2ccc3c(c2)C(NC(=O)O[C@@H]2CN4CCC2CC4)CCO3)cc1` (stereo partly drawn) [Example 97, (S)-quinuclidin-3-yl (6-(4-(methylthio)phenyl)chroman-4-yl)carbamate], for which the IC50 in experiment [1] turned out to be 11.5 nM; in experiment [2] it was 502 nM.
As for `CSc1cccc(-c2ccc3c(c2)C(NC(=O)O[C@@H]2CN4CCC2CC4)CCO3)c1` (stereo partly drawn) [Example 98, (S)-quinuclidin-3-yl (6-(3-(methylthio)phenyl)chroman-4-yl)carbamate], the IC50 turned out to be 14.9 nM in experiment [1] and 525 nM in experiment [2].
The like results for `Cc1ccc(-c2ccc3c(c2)C(NC(=O)O[C@@H]2CN4CCC2CC4)CCO3)cc1` (stereo partly drawn) [Example 99, (S)-quinuclidin-3-yl (6-(p-tolyl)chroman-4-yl)carbamate] were, in that order, 19.2 nM and 322 nM.
On to `N#Cc1ccc(-c2ccc3c(c2)C(NC(=O)O[C@@H]2CN4CCC2CC4)CCO3)cc1` (stereo partly drawn) [Example 100, (S)-quinuclidin-3-yl (6-(4-cyanophenyl)chroman-4-yl)carbamate], for which the 50% inhibitory concentration (IC50) in experiment [1] is 7.1 nM; in experiment [2] it was 289 nM.
For `CC1(C)COc2ccc(-c3cccc(F)c3)cc2C1NC(=O)O[C@@H]1CN2CCC1CC2` (stereo partly drawn) [Example 101, (S)-quinuclidin-3-yl (6-(3-fluorophenyl)-3,3-dimethylchroman-4-yl)carbamate], in that order: 9.2 nM and 65.9 nM.
The like results for `CC1(C)COc2cc(-c3cccc(F)c3)ccc2C1NC(=O)O[C@@H]1CN2CCC1CC2` (stereo partly drawn) [Example 102, (S)-quinuclidin-3-yl (7-(3-fluorophenyl)-3,3-dimethylchroman-4-yl)carbamate] were, in that order, 0.8 nM and 2.81 nM.
For the compound `CC1(C)COc2cc(-c3cccc(Cl)c3)ccc2C1NC(=O)O[C@@H]1CN2CCC1CC2` (stereo partly drawn) [Example 103, (S)-quinuclidin-3-yl (7-(3-chlorophenyl)-3,3-dimethylchroman-4-yl)carbamate], the 50% inhibitory concentration (IC50) was determined as 1 nM in experiment [1] and 1.43 nM in experiment [2].
For `CC1(C)COc2cc(-c3cccc(C(F)(F)F)c3)ccc2C1NC(=O)O[C@@H]1CN2CCC1CC2` (stereo partly drawn) [Example 104, (S)-quinuclidin-3-yl (3,3-dimethyl-7-(3-(trifluoromethyl)phenyl)chroman-4-yl)carbamate], in that order: 1 nM and 1.02 nM.
For `CC1(C)COc2cc(-c3cccc(OC(F)(F)F)c3)ccc2C1NC(=O)O[C@@H]1CN2CCC1CC2` (stereo partly drawn) [Example 105, (S)-quinuclidin-3-yl (3,3-dimethyl-7-(3-(trifluoromethoxy)phenyl)chroman-4-yl)carbamate], in that order: 1.11 nM and 1.41 nM.
The like results for `COCOc1ccccc1-c1ccc2c(c1)OCC(C)(C)C2NC(=O)O[C@@H]1CN2CCC1CC2` (stereo partly drawn) [Example 106, (S)-quinuclidin-3-yl (7-(2-(methoxymethoxy)phenyl)-3,3-dimethylchroman-4-yl)carbamate] were, in that order, 1.17 nM and 0.22 nM.
As for `COCOc1cccc(-c2ccc3c(c2)OCC(C)(C)C3NC(=O)O[C@@H]2CN3CCC2CC3)c1` (stereo partly drawn) [Example 107, (S)-quinuclidin-3-yl (7-(3-(methoxymethoxy)phenyl)-3,3-dimethylchroman-4-yl)carbamate], the IC50 in experiment [1] is 1.17 nM; in experiment [2], 0.1 nM.
For `COCOc1ccc(-c2ccc3c(c2)OCC(C)(C)C3NC(=O)O[C@@H]2CN3CCC2CC3)cc1` (stereo partly drawn) [Example 108, (S)-quinuclidin-3-yl (7-(4-(methoxymethoxy)phenyl)-3,3-dimethylchroman-4-yl)carbamate], in that order: 0.69 nM and 0.46 nM.
For `COCCOc1ccccc1-c1ccc2c(c1)OCC(C)(C)C2NC(=O)O[C@@H]1CN2CCC1CC2` (stereo partly drawn) [Example 109, (S)-quinuclidin-3-yl (7-(2-(2-methoxyethoxy)phenyl)-3,3-dimethylchroman-4-yl)carbamate], in that order: 2.14 nM and 2 nM.
The like results for `COCCOc1cccc(-c2ccc3c(c2)OCC(C)(C)C3NC(=O)O[C@@H]2CN3CCC2CC3)c1` (stereo partly drawn) [Example 110, (S)-quinuclidin-3-yl (7-(3-(2-methoxyethoxy)phenyl)-3,3-dimethylchroman-4-yl)carbamate] were, in that order, 1.3 nM and 0.12 nM.
For the compound `COCCOc1ccc(-c2ccc3c(c2)OCC(C)(C)C3NC(=O)O[C@@H]2CN3CCC2CC3)cc1` (stereo partly drawn) [Example 111, (S)-quinuclidin-3-yl (7-(4-(2-methoxyethoxy)phenyl)-3,3-dimethylchroman-4-yl)carbamate], the IC50 in experiment [1] is 1.93 nM; in experiment [2], 1.27 nM.
